# Test results as given in patent EP0888056B1, “HERBICIDAL MIXTURES” (BASF AKTIENGESELLSCHAFT, priority 1996, dated 1998).
# “And” between values parts separate entries of the source, which are not always exact repeats. Equal values may be shown once.
# How the values were obtained:
# Format in all cases: in vivo
# Galium aparine = test: greenhouse herbicidal trial, post-emergence application, assessment 21 days after treatment
# Method: (§1) The trials are carried out under greenhouse conditions in pre- and post-emergence applications. The plant seeds are sown in pots containing a loamy sand soil (0.5 I). The herbicides are applied as single treatments, or in a combination comprising a BAP compound and a non-BAP compound as designated, before or after emergence of weeds and crop. The herbicidal performance is assessed as percent damage in comparison to the untreated control plants. The assessment is done 21 days after the treatment. Wheat and barley are treated at the 3-4 leaf stage, the broad-leaf weeds at the 2-4 leaf stage and annual grasses at the 2-3 leaf stage.
# Matricaria inodora = test: as above
# Method: as §1
# Myosotis arvensis = test: as above
# Method: as §1
# Papaver rhoeas = test: as above
# Method: as §1
# Alopecurus myosuroides [1] = test: greenhouse herbicidal trial, pre-emergence application, assessment 21 days after treatment
# Method: as §1
# Lamium purpureum = test: greenhouse herbicidal trial, post-emergence application, assessment 21 days after treatment
# Method: as §1
# Polygonum convolvulus = test: as above
# Method: as §1
# Polygonum lapathifolium = test: as above
# Method: as §1
# Stellaria media = test: as above
# Method: as §1
# Veronica persica = test: as above
# Method: as §1
# Setaria viridis = test: as above
# Method: as §1
# Alopecurus myosuroides [2] = test: as above
# Method: as §1
# Lolium perenne = test: as above
# Method: as §1
# Poa annua = test: as above
# Method: as §1
# Viola arvensis = test: as above
# Method: as §1
# [3] = Galium aparine (1.whorl), 60 g a.i./ha
# [4] = Galium aparine (2.whorl), 60 g a.i./ha
# [5] = Galium aparine (1.whorl), 15 g a.i./ha
# [6] = Galium aparine (1.whorl), 30 g a.i./ha
# [7] = Galium aparine (2.whorl), 15 g a.i./ha
# [8] = Galium aparine (1.whorl), 120 g a.i./ha
# [9] = Galium aparine (2.whorl), 120 g a.i./ha
compound,measurement,setting,value
"N#Cc1cc(I)c(O)c(I)c1 [loxynil, reference compound]",% Control,Galium aparine; [3],40%
same,% Control,Galium aparine; [4],5%
same,% Control,Matricaria inodora; 60 g a.i./ha,89%
same,% Control,Myosotis arvensis; 60 g a.i./ha,37%
same,% Control,Papaver rhoeas; 60 g a.i./ha,0%
Cc1cc(OCc2ccccc2)nc(Oc2cc(C(F)(F)F)nn2C)c1 [Compound D],% Control,Alopecurus myosuroides [1]; 15 g a.i./ha,60% and 57%
CCC(CC)Nc1c([N+](=O)[O-])cc(C)c(C)c1[N+](=O)[O-] [Pendimethalin],% Control,Alopecurus myosuroides [1]; 450 g a.i./ha,35%
same,% Control,Alopecurus myosuroides [1]; 900 g a.i./ha,55%
Cc1cc(Oc2cc(C(F)(F)F)nn2C)nc(Oc2cc(C(F)(F)F)nn2C)c1 [Compound B],% Control,"Galium aparine; Galium aparine (1.whorl), 15 9 a.i./ha",80%
same,% Control,Galium aparine; [5],67% and 40%
same,% Control,Galium aparine; [6],83% and 52%
same,% Control,"Galium aparine; Galium aparine (2.whorl), 15 9 a.i./ha",60%
same,% Control,Galium aparine; [7],45% and 37%
same,% Control,"Galium aparine; Galium aparine (2.whorl), 30 g a.i./ha",67% and 65% and 45%
same,% Control,"Galium aparine; Galium aparine (3.whorl), 15 g a.i./ha",40%
same,% Control,"Galium aparine; Galium aparine (3.whorl), 30 g a.i./ha",40%
same,% Control,Lamium purpureum; 7.5 g a.i./ha,70%
same,% Control,Matricaria inodora; 15 9 a.i./ha,7%
same,% Control,Matricaria inodora; 15 g a.i./ha,20%
same,% Control,Matricaria inodora; 30 g a.i./ha,22%
same,% Control,Papaver rhoeas; 7.5 g a.i./ha,7%
same,% Control,Polygonum convolvulus; 15 g a.i./ha,7%
same,% Control,Polygonum convolvulus; 30 g a.i./ha,15% and 7%
same,% Control,Polygonum lapathifolium; 15 g a.i./ha,17%
same,% Control,Stellaria media; 7.5 g a.i./ha,25%
same,% Control,Stellaria media; 15 g a.i./ha,47% and 45% and 27%
same,% Control,Stellaria media; 30 g a.i./ha,62% and 42%
same,% Control,Veronica persica; 7.5 g a.i./ha,65%
same,% Control,Veronica persica; 15 g a.i./ha,77%
"CCNc1nc(Cl)nc(NC(C)(C)C#N)n1 [Cyanazine, reference compound]",% Control,Galium aparine; [8],5%
same,% Control,"Galium aparine; Galium aparine (1.whorl), 240 g a.i./ha",10%
same,% Control,Galium aparine; [9],0%
same,% Control,"Galium aparine; Galium aparine (2.whorl), 240 g a.i./ha",10%
same,% Control,"Galium aparine; Galium aparine (3.whorl), 120 g a.i./ha",0%
same,% Control,"Galium aparine; Galium aparine (3.whorl), 240 g a.i./ha",5%
same,% Control,Matricaria inodora; 120 g a.i./ha,52%
same,% Control,Matricaria inodora; 240 g a.i./ha,85%
same,% Control,Papaver rhoeas; 120 g a.i./ha,0%
same,% Control,Papaver rhoeas; 240 g a.i./ha,0%
same,% Control,Polygonum convolvulus; 120 g a.i./ha,60%
same,% Control,Stellaria media; 120 g a.i./ha,61%
same,% Control,Stellaria media; 240 g a.i./ha,72%
"CC(Oc1ccc(Oc2nc3ccc(Cl)cc3o2)cc1)C(=O)O (centres unmarked) [Fenoxaprop, reference compound]",% Control,Setaria viridis; 15 g a.i./ha,62%
same,% Control,Setaria viridis; 30 g a.i./ha,72%
same,% Control,Setaria viridis; 60 g a.i./ha,77%
"Nc1c(Cl)c(F)nc(OCC(=O)O)c1Cl [Fluroxypyr, reference compound]",% Control,Matricaria inodora; 90 g a.i./ha,45%
same,% Control,Papaver rhoeas; 90 g a.i./ha,0%
same,% Control,Polygonum convolvulus; 90 g a.i./ha,45%
same,% Control,Polygonum lapathifolium; 120 g a.i./ha,80%
same,% Control,Stellaria media; 120 g a.i./ha,67%
same,% Control,Veronica persica; 120 g a.i./ha,52%
Cc1cc(OCc2ccc(F)cc2)nc(Oc2cc(C(F)(F)F)nn2C)c1 [Compound C],% control,Alopecurus myosuroides [2]; 12.5 g a.i./ha,65%
same,% control,Alopecurus myosuroides [2]; 25 g a.i./ha,83%
same,% control,Alopecurus myosuroides [2]; 50 g a.i./ha,88%
same,% control,Lolium perenne; 12.5 g a.i./ha,38%
same,% control,Lolium perenne; 25 g a.i./ha,65%
same,% control,Lolium perenne; 50 g a.i./ha,78%
same,% control,Poa annua; 12.5 g a.i./ha,75%
same,% Control,Setaria viridis; 12.5 g a.i./ha,30%
same,% control,Setaria viridis; 12.5 g a.i./ha,30%
same,% control,Setaria viridis; 25 g a.i./ha,55%
same,% control,Setaria viridis; 50 g a.i./ha,75%
Cn1nc(C(F)(F)F)cc1Oc1cccc(Oc2cc(C(F)(F)F)nn2C)n1 [Compound A],% Control,Galium aparine; [6],80% and 57%
same,% Control,"Galium aparine; Galium aparine (1.whorl), 50 g a.i./ha",50%
same,% Control,Galium aparine; [3],67%
same,% Control,"Galium aparine; Galium aparine (2.whorl), 50 g a.i./ha",30%
same,% Control,Galium aparine; [4],42%
same,% Control,Lamium purpureum; 30 g a.i./ha,65% and 62% and 35%
same,% Control,Matricaria inodora; 15 g a.i./ha,1%
same,% Control,Matricaria inodora; 30 g a.i./ha,1%
same,% Control,Myosotis arvensis; 15 g a.i./ha,72%
same,% Control,Myosotis arvensis; 30 g a.i./ha,57%
same,% Control,Papaver rhoeas; 15 g a.i./ha,79%
same,% Control,Papaver rhoeas; 60 g a.i./ha,10%
same,% Control,Stellaria media; 30 g a.i./ha,45% and 65%
same,% Control,Veronica persica; 30 g a.i./ha,81%
same,% Control,Viola arvensis; 30 g a.i./ha,75%
"COc1cc(OC)nc(NC(=O)NS(=O)(=O)N(C)S(C)(=O)=O)n1 [Amidosulfuron, reference compound]",% Control,Galium aparine; [5],40%
same,% Control,Galium aparine; [7],20%
same,% Control,Lamium purpureum; 30 g a.i./ha,0%
same,% Control,Papaver rhoeas; 30 g a.i./ha,15%
same,% Control,Stellaria media; 30 g a.i./ha,50%
same,% Control,Veronica persica; 30 g a.i./ha,0%
"Cc1cc(Cl)ccc1O[C@H](C)C(=O)O [CMPP-P, (R)-2-(4-chloro-2-methylphenoxy) proprionic acid]",% Control,Lamium purpureum; 480 g a.i./ha,67%
same,% Control,Papaver rhoeas; 480 g a.i./ha,47%
same,% Control,Polygonum convolvulus; 480 g a.i./ha,40%
"CC(C)c1ccc(NC(=O)N(C)C)cc1 [Isoproturon, reference compound]",% control,Alopecurus myosuroides [2]; 150 g a.i./ha,30%
same,% control,Alopecurus myosuroides [2]; 300 g a.i./ha,73%
same,% Control,"Galium aparine; Galium aparine (2.whorl), 1920 g a.i./ha",0%
same,% Control,Lamium purpureum; 1920 g a.i./ha,3%
same,% control,Lolium perenne; 150 g a.i./ha,10%
same,% control,Lolium perenne; 300 g a.i./ha,40%
same,% Control,Myosotis arvensis; 1920 g a.i./ha,25%
same,% control,Poa annua; 150 g a.i./ha,65%
same,% control,Poa annua; 300 g a.i./ha,83%
same,% Control,Polygonum convolvulus; 1920 g a.i./ha,4%
same,% control,Setaria viridis; 150 g a.i./ha,58%
same,% Control,Veronica persica; 1920 g a.i./ha,0%
same,% Control,Viola arvensis; 1920 g a.i./ha,65%
same,% Control,Alopecurus myosuroides [1]; 120 g a.i./ha,75%
"CCCCCCCC(=O)Oc1c(Br)cc(C#N)cc1Br [Bromoxynil, Bromoxynil Octanoate, reference compound]",% Control,Galium aparine; [3],70%
same,% Control,Galium aparine; [8],75%
same,% Control,Galium aparine; [4],57%
same,% Control,Galium aparine; [9],77%
same,% Control,Lamium purpureum; 60 g a.i./ha,17%
same,% Control,Papaver rhoeas; 60 g a.i./ha,79%
same,% Control,Stellaria media; 60 g a.i./ha,0%
